Several values for one entry are separate records, joined by “and”; a condition that tells them apart may be missing. Equal entries are not always repeated.
Experiments:
[1] = system: antiestrogen-binding sites (AEBS); test: Competitive displacement of [3H]tamoxifen from AEBS in EL4 whole cells; conditions: 5 nM [3H]tamoxifen, competitor 50 nM-1000 nM, tamoxifen = 100, mean ± SEM of two experiments
Procedure: ^a Determined by competitive ligand binding assays using EL4 whole
cells as the source of AEBS. Cells were incubated with 5 nM [^3
unlabelled competing ligand (50 nM-1000 nM). The binding reaction was
where RBA50 is the concentration required to reduce bound [^3
competiting ligand). The data are the mean ± SEM of two experiments.

human breast carcinoma = conditions: clinical trials; prior art; cited from earlier work
estrogen receptor (ER) [2] = conditions: prior art, cited from earlier work
estrogen receptor (ER) [3] = biological target: T1, estrogen receptor (ER) (Homo sapiens, UniProt P03372); test: Competitive displacement of [3H]estradiol from ER in MCF7 whole cells; type: binding; conditions: 5 nM [3H]estradiol, hundredfold excess of test compound, mean ± SEM of two experiments, read-out: Bound [3H]estradiol (% of control)
T1 construct: ER present in an established human breast carcinoma-derivedcell line, MCF7; endogenous in cells; host or cells: MCF7 whole cells
T1 sequence (P03372 1-595): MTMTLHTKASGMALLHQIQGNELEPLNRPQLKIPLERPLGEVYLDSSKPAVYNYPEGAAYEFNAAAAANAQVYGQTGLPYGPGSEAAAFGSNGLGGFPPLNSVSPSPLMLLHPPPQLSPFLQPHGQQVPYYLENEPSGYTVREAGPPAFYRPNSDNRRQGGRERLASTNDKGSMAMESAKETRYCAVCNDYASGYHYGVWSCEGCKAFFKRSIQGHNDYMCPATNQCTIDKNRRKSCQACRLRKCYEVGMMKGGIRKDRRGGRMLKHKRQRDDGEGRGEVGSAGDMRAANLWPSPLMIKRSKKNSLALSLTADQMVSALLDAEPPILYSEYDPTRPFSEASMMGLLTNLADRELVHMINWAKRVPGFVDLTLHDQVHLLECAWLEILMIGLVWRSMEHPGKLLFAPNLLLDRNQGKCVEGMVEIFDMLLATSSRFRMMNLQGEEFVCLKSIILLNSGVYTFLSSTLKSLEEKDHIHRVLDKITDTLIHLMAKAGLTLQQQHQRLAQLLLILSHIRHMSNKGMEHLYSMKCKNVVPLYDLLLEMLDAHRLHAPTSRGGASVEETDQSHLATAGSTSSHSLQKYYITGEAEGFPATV
Procedure: ^a Determined by competitive ligand binding assays using MCF7 whole
cells as the receptor source. Cells were incubated with 5 nM [^3
H]estradiol in the absence or presence of a hundredfold excess of DES or
each test compound. The binding reaction was performed and bound [^3
H]estradiol quantitated as described in the experimental section.
^b Bound [^3 H]estradiol in the absence of unlabelled competing
ligand was set at 100%. The data are the mean ± SEM of two experiments

EL4 cells [4] = test: [3H]Thymidine incorporation (antiproliferative activity) by EL4 cells; type: cell-based; conditions: Mus musculus, 48 hours, mean ± SEM of two experiments, read-out: IC50 EL4 (inhibition of [3H]thymidine incorporation)
Procedure: (§1) After 48 hours, each well was pulsed with [^3 H]thymidine (New England Nuclear)(74 KBq/well, 0.02 ml/well) for 60 minutes. Macromolecular incorporation of [^3 H]thymidine was quantitated by harvesting cells on a Brandel harvester fitted with scintillant-coated glass microfibre filters (Ready Filters, Beckman).
(§2) [^3 H]Thymidine incorporation by MCF7 and RTx6 cells was determined by the same technique with the following modifications: (i) cells were plated at 4,500 cells/well (0.18 ml/well); (ii) compounds and [^3 H]thymidine (37 KBq/well, 0.02 ml/well) were added 24 hours after plating; (iii) cells were trypsinized (0.05 ml of 0.05%/0.53 mM EDTA/well) prior to harvesting.

MCF7 cells = test: [3H]Thymidine incorporation (antiproliferative activity) by MCF7 cells; type: cell-based; conditions: Homo sapiens, 48 hours, mean ± SEM of two experiments, read-out: IC50 MCF7 (inhibition of [3H]thymidine incorporation)
Procedure: as §1, §2

[5] = system: cholesterol biosynthesis by EL4 cells; test: De novo cholesterol biosynthesis from [3H]acetate by EL4 cells; type: cell-based; conditions: for % total radioactivity incorporated as cholesterol, experiment I / % total radioactivity incorporated as cholesterol, experiment II: single determinations of triplicate; for % total radioactivity incorporated as cholesterol, Mean: two experiments in triplicate
Procedure: (§3) De novo synthesis of cholesterol by EL4 cells from [^3 H]acetic acid, sodium salt (Amersham) (103 GBq/mmol) was quantitated using [4-^14 C]cholesterol (Amersham) (2.04 GBq/mmol) as internal standard by the method of Ho et al., J.Exp.Med.(1977) 145:1531-1549). Each determination was performed in triplicate, each consisting of 0.8 ml of a cell suspension (2×10^7 EL4 cells/ml) incubated with [^3 H]acetate (0.25 mM) and the test compound (0.1 ml, 10^-6 M-10^-4 M) for 5 or 48 hours at 37° C.
^a EL4 cells (20 × 10^6 cells/ml in well) were incubated
with 0.25 mM [^3 H]acetate in the absence or presence of 2 (10^-6
^b EL4 cells (20 × 10^6 cells/ml in well) were incubated
with 0.25 mM [^3 H] acetate in the absence or presence of 2 (10^-
with 0.25 mM [^3 H]acetate in the absence or presence of 4 (10^-4

[6] = Cell viability of EL4 cells by trypan blue exclusion; type: cell-based; conditions: mouse, el4 cells, trypan blue exclusion
Procedure: (§4) Cell counts were performed manually using a Neubauer hemocytometer. Cell viability was assessed by trypan blue exclusion. The table below (Table HI) is a summary
as §3
(§5) ^e Cell viability was estimated by trypan blue exclusion.
(§6) ^d Cell viability was estimated by trypan blue exclusion.

EL4 cells [7] = test: as above; type: cell-based; conditions: compound 2, 5 hours
Procedure: as §4, §3, §5, §6

[8] = prior art; cited from earlier work
[9] = compound 2, concentration 10^-M [sic], 48 hours

**Q.** Which results are given for `CC/C(=C(\c1ccccc1)c1ccc(OCCN(C)C)cc1)c1ccccc1` [1a (Tamoxifen), 1-[4-(2-dimethylaminoethoxy)phenyl]-1,2-diphenylbut1-(Z)-ene]?
**A.** RBA [1]: 100; adverse side effects (in words) (human breast carcinoma): low incidence of adverse side effects; clinical efficacy as antiestrogen (in words) (human breast carcinoma): established its efficacy; antagonist/agonist character (in words) (estrogen receptor (ER) [2]): partial antagonists/agonists

**Q.** For `COc1ccc2c(-c3ccc(OCCN(C)C)cc3)c(Cc3ccc(Cl)cc3)oc2c1` [Compound 1], which RBA [1] is on record?
**A.** 391 ± 195

**Q.** And the remaining activity at 0.5 µM (estrogen receptor (ER) [3])?
**A.** 98 ± 1%

**Q.** And the IC50 (EL4 cells [4])?
**A.** 950 ± 50 nM

**Q.** And the IC50 (MCF7 cells)?
**A.** 5025 ± 25 nM

**Q.** What does the source list for `COc1ccc2c(-c3ccc(OCCN4CCCC4)cc3)c(Cc3ccc(Cl)cc3)oc2c1` [Compound 2, 2-(p-Chlorobenzyl)-3-[p-(2-pyrrolidinoethoxy)phenyl]-6-methoxybenzo[b]furan]?
**A.** RBA [1]: 268 ± 92; IC50 (EL4 cells [4]): 475 ± 225 nM; IC50 (MCF7 cells): 2300 ± 100 nM; inhibition of cholesterol biosynthesis (in words) ([5]; as early as 5 hours after treatment): significant inhibition of cholesterol biosynthesis; % inhibition of cholesterol synthesis ([5]; compound 2, 10^-6 M, 5 hours, p < 0.01, Student's t test): 48%; % total radioactivity incorporated as cholesterol, experiment I ([5]; compound 2, 10^-6 M, 5 hours): 0.13% and 0.10% and 0.12%; % total radioactivity incorporated as cholesterol, experiment II ([5]; compound 2, 10^-6 M, 5 hours): 0.11% and 0.12% and 0.14%; % total radioactivity incorporated as cholesterol, Mean ([5]; compound 2, 10^-6 M, 5 hours, control 0.23 ± 0.02): 0.12 ± 0.01%; % inhibition of cholesterol synthesis ([5]; compound 2, concentration 10^-M [sic], 48 hours, p < 0.01, Student's t test): 47%; % total radioactivity incorporated as cholesterol, experiment I [5, 9]: 0.16% and 0.15% and 0.24%; % total radioactivity incorporated as cholesterol, experiment II [5, 9]: 0.14% and 0.17%; % total radioactivity incorporated as cholesterol, Mean ([5]; compound 2, concentration 10^-M [sic], 48 hours, control 0.32 ± 0.02): 0.17 ± 0.02%; viability at 5 h, 1 µM ([6]; compound 2, 10^-6 M, 5 hours, control 96): 91%; viability at 48 h ([6]; compound 2, concentration 10^-M [sic], 48 hours, control 92): 87%; cell viability (in words) (EL4 cells [7]): not associated with loss of cell viability

**Q.** Which RBA [1] does the source give for `COc1ccc2c(-c3ccc(OCCN4CCCCC4)cc3)c(Cc3ccc(Cl)cc3)oc2c1` [Compound 3, 2-(p-Chlorobenzyl)-3-[p-(2-piperidinoethoxy)phenyl]-6-methoxybenzo[b]furan] here?
**A.** 605 ± 371

**Q.** What about the remaining activity at 0.5 µM (estrogen receptor (ER) [3]) of the same compound?
**A.** 93.5 ± 0.5%

**Q.** And the IC50 (EL4 cells [4])?
**A.** 300 ± 150 nM

**Q.** And the IC50 (MCF7 cells)?
**A.** 2050 ± 50 nM

**Q.** Which results are given for `COc1ccc2c(-c3ccc(OCCN4CCOCC4)cc3)c(Cc3ccc(Cl)cc3)oc2c1` [Compound 4]?
**A.** RBA [1]: 1828 ± 446; remaining activity at 0.5 µM (estrogen receptor (ER) [3]): 104 ± 2.5%; IC50 (EL4 cells [4]): 335 ± 145 nM; IC50 (MCF7 cells): 6500 ± 500 nM; % inhibition of cholesterol synthesis ([5]; compound 4, 10^-4 M, 5 hours, p < 0.05, Student's t test): 56%; % total radioactivity incorporated as cholesterol, experiment I ([5]; compound 4, 10^-4 M, 5 hours): 0.19% and 0.09% and 0.05%; % total radioactivity incorporated as cholesterol, experiment II ([5]; compound 4, 10^-4 M, 5 hours): 0.11% and 0.12%; % total radioactivity incorporated as cholesterol, Mean ([5]; compound 4, 10^-4 M, 5 hours, control 0.25 ± 0.02): 0.11 ± 0.03%; incorporation of [3H]acetate into cholesterol (in words) ([5]; compound 4 at higher concentration (Table V)): decreased incorporation of [^3 H]acetate into cholesterol; viability at 5 h, 100 µM ([6]; compound 4, 10^-4 M, 5 hours, control 96): 79%

**Q.** Which results are given for `O=C(c1ccc(OCCN2CCCC2)cc1)c1c(-c2ccc(O)cc2)sc2cc(O)ccc12` [LY117018]?
**A.** antagonist/agonist character (in words) (estrogen receptor (ER) [2]): partial antagonists/agonists (like tamoxifen); duration of action in vivo (in words) [8]: shorter duration of action in vivo

**Q.** What does the source list for `COc1ccc(C2=C(C(=O)c3ccc(OCCN4CCCC4)cc3)c3ccccc3CC2)cc1` [Trioxifene]?
**A.** clinical efficacy as antiestrogen (in words) (human breast carcinoma): an effective antiestrogen in clinical trials; estrogenic activity (in words) (estrogen receptor (ER) [2]; compared with tamoxifen): possesses greater estrogenic activity than tamoxifen
